# Laboratory results: patent US20190209465A1, “PROCESS FOR PREPARING PHARMACEUTICAL OPHTHALMIC COMPOSITIONS OF BRINZOLAMIDE” (priority 2016, published 2019)
# Tests used:
# [1] = Solubility study of oil/surfactant combination (excess drug, heating, centrifugation, HPLC of supernatant); format: physicochemical; conditions: in PEG 200 (5 g), on heating
# [2] = as above; format: physicochemical; conditions: for mg API dissolved temperature: on heating; for Assay: supernatant by HPLC
# Procedure: Additional solubility trials were planned in order to see the impact of surfactant/oil combination on solubility of Brinzolamide. 5 g of each of the vehicles of Table 2 was added in 10 ml beakers under stirring, containing excesses of drug. Afterwards, the mixture was heated to improve solubilization. After equilibrium was achieved, the mixture was centrifuged at 4000 rpm for 10 minutes and the supernatant was quantified by high-performance liquid chromatography.
# [3] = cited from earlier work
# [4] = Solubility study of ophthalmically acceptable excipients (visual, incremental addition of drug, then heating); format: physicochemical
# [5] = in Kolliphor EL + IPM (5 g + 1 g)
# [6] = in Kolliphor EL + IPM (5 g + 3 g)
# [7] = in Kolliphor EL + IPM (5 g + 5 g)
# [8] = in Tween 80 + IPM + Kolliphor EL (5 g + 1 g + 3.1 g)
# [9] = in Tween 80 + IPM + Kolliphor EL (5 g + 1 g + 4.6 g)
# [10] = in Tween 80 + IPM + Kolliphor EL (5 g + 1 g + 12.5 g)
structure (smiles),measurement,setting,value
"CCN[C@H]1CN(CCCOC)S(=O)(=O)c2sc(S(N)(=O)=O)cc21 [Brinzolamide, (R)-4-ethylamino-3,4-dihydro-2-(3-methoxy) propyl-2H-thieno[3,2-e]-1,2-thiazine-6-sulfonamide 1, 1 dioxide]",mg API dissolved temperature,[1],1042.3 mg
same,API dissolved,[2]; in Kolliphor EL (5 g),203.0 mg/mL
same,Total mg dissolved,[2]; in Kolliphor EL (5 g),1015.1 mg
same,mg API dissolved @ RT,[2]; in Kolliphor EL (5 g),502.6 mg
same,mg API dissolved temperature,[2]; in Kolliphor EL (5 g),512.5 mg
same,Assay,[2]; in Kolliphor EL (5 g),177.65 mg/mL
same,API dissolved,[2]; [5],167.1 mg/mL
same,Total mg dissolved,[2]; [5],1002.3 mg
same,mg API dissolved @ RT,[2]; [5],802.3 mg
same,mg API dissolved temperature,[2]; [5],200.0 mg
same,Assay,[2]; [5],104.70 mg/mL
same,API dissolved,[2]; [6],126.6 mg/mL
same,Total mg dissolved,[2]; [6],1012.7 mg
same,mg API dissolved @ RT,[2]; [6],500.5 mg
same,mg API dissolved temperature,[2]; [6],512.2 mg
same,Assay,[2]; [6],76.75 mg/mL
same,API dissolved,[2]; [7],70.8 mg/mL
same,Total mg dissolved,[2]; [7],708.0 mg
same,mg API dissolved @ RT,[2]; [7],401.3 mg
same,mg API dissolved temperature,[2]; [7],306.7 mg
same,Assay,[2]; [7],68.97 mg/mL
same,API dissolved,[2]; in PEG 200 (5 g),390.1 mg/mL
same,Total mg dissolved,[2]; in PEG 200 (5 g),1950.5 mg
same,mg API dissolved @ RT,[2]; in PEG 200 (5 g),908.2 mg
same,Assay,[2]; in PEG 200 (5 g),236.63 mg/mL
same,API dissolved,[2]; in Transcutol (5 g),400.0 mg/mL
same,Total mg dissolved,[2]; in Transcutol (5 g),2.000 mg
same,mg API dissolved @ RT,[2]; in Transcutol (5 g),1008.5 mg
same,mg API dissolved temperature,[2]; in Transcutol (5 g),991.5 mg
same,Assay,[2]; in Transcutol (5 g),189.94 mg/mL
same,API dissolved,[2]; in Tween 80 (5 g),204.2 mg/mL
same,Total mg dissolved,[2]; in Tween 80 (5 g),1020.9 mg
same,mg API dissolved @ RT,[2]; in Tween 80 (5 g),501.9 mg
same,mg API dissolved temperature,[2]; in Tween 80 (5 g),519.0 mg
same,Assay,[2]; in Tween 80 (5 g),169.08 mg/mL
same,API dissolved,[2]; in Tween 80 + IPM (5 g + 1 g),133.8 mg/mL
same,Total mg dissolved,[2]; in Tween 80 + IPM (5 g + 1 g),802.8 mg
same,mg API dissolved @ RT,[2]; in Tween 80 + IPM (5 g + 1 g),400.9 mg
same,mg API dissolved temperature,[2]; in Tween 80 + IPM (5 g + 1 g),401.9 mg
same,Assay,[2]; in Tween 80 + IPM (5 g + 1 g),113.05 mg/mL
same,API dissolved,[2]; in Tween 80 + IPM (5 g + 3 g),100.3 mg/mL
same,Total mg dissolved,[2]; in Tween 80 + IPM (5 g + 3 g),802.7 mg
same,mg API dissolved @ RT,[2]; in Tween 80 + IPM (5 g + 3 g),400.3 mg
same,mg API dissolved temperature,[2]; in Tween 80 + IPM (5 g + 3 g),402.4 mg
same,Assay,[2]; in Tween 80 + IPM (5 g + 3 g),84.49 mg/mL
same,API dissolved,[2]; in Tween 80 + IPM (5 g + 5 g),90.9 mg/mL
same,Total mg dissolved,[2]; in Tween 80 + IPM (5 g + 5 g),908.6 mg
same,mg API dissolved @ RT,[2]; in Tween 80 + IPM (5 g + 5 g),400.0 mg
same,mg API dissolved temperature,[2]; in Tween 80 + IPM (5 g + 5 g),508.6 mg
same,Assay,[2]; in Tween 80 + IPM (5 g + 5 g),52.08 mg/mL
same,API dissolved,[2]; [8],110.9 mg/mL
same,Total mg dissolved,[2]; [8],1009.1 mg
same,mg API dissolved @ RT,[2]; [8],501.5 mg
same,mg API dissolved temperature,[2]; [8],507.6 mg
same,Assay,[2]; [8],88.93 mg/mL
same,API dissolved,[2]; [9],110.1 mg/mL
same,Total mg dissolved,[2]; [9],1002.1 mg
same,mg API dissolved @ RT,[2]; [9],404.0 mg
same,mg API dissolved temperature,[2]; [9],602.1 mg
same,Assay,[2]; [9],102.12 mg/mL
same,API dissolved,[2]; [10],43.5 mg/mL
same,Total mg dissolved,[2]; [10],805.6 mg
same,mg API dissolved @ RT,[2]; [10],403.4 mg
same,mg API dissolved temperature,[2]; [10],402.2 mg
same,Assay,[2]; [10],39.65 mg/mL
same,solubility in alcohol and methanol,[3]; alcohol and methanol,slightly soluble
same,solubility in water versus pH,"[3]; water, different pH",pH dependent with minimal solubility at neutral pH and increased solubility at more basic or acidic pH
same,solubility in water,[3]; water,insoluble
same,Brinzolamide dissolved in 10 g,[4]; in Anfopon,60 mg
same,Brinzolamide dissolved in 10 g,[4]; in Dubcare Olga SF,60 mg
same,Brinzolamide dissolved in 10 g,[4]; in Isopropyl Myristate (Kollicream IPM),60 mg
same,Brinzolamide dissolved in 10 g,[4]; in Kolliphor EL,1015.1 mg
same,Brinzolamide dissolved in 10 g,[4]; in Kollisolv GTA,210 mg
same,Brinzolamide dissolved in 10 g,[4]; in Myritol 318,60 mg
same,Brinzolamide dissolved in 10 g,[4]; in PEG200,2000 mg
same,Brinzolamide dissolved in 10 g,[4]; in Radia 7104,60 mg
same,Brinzolamide dissolved in 10 g,[4]; in Sesame Oil,60 mg
same,Brinzolamide dissolved in 10 g,[4]; in Silicone Oil,60 mg
same,Brinzolamide dissolved in 10 g,[4]; in Transcutol,800 mg
same,Brinzolamide dissolved in 10 g,[4]; in Tween 80,2000 mg
